# Measurements as given in patent publication US9676782B2, “Substituted pyrazolo[1,5-a]pyrazines as negative allosteric modulators of metabotropic glutamate receptor 3” (Vanderbilt University, priority 2014, dated 2017).
# Where two headings read alike, the source gives them in different places.
# Experiments:
# [1] = target: rat mGlu3 (Rattus norvegicus (Rat), UniProt P31422); experiment: mGlu3 Ca2+ flux assay; assay type: cell-based; settings: for IC50: read-out: rat mGlu3 IC50; for remaining activity at 30 µM: amplitude of response at 30 μM test compound as % of maximal response to glutamate, read-out: rat mGlu3 Glu max (%)
# In short: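 Cells expressing rat mGlu3 were grown overnight at 37° C. under 5% CO2, then loaded with dye. After dye removal they received 20 μL of assay buffer and sat 10 minutes at room temperature. Calcium flux was read on a Hamamatsu FDSS7000, and fluorescence was expressed as fold over basal and normalized to the maximal glutamate response.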
# [2] = target: rat mGlu5 (Rattus norvegicus (Rat), UniProt P31424); experiment: mGlu5 Ca2+ flux assay; assay type: cell-based; settings: for Fold selectivity (mGlu3 vs. mGlu5): ratio of rat mGlu5 EC50 or IC50 to rat mGlu3 IC50; for EC50: read-out: rat mGlu5 EC50 or IC50
# In short: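 Transfected cells grown overnight at 37° C/5% CO2, dye-loaded, then 5 min in assay buffer at RT before Ca2+ flux read on FDSS7000. Fluorescence as F/F0 fold over basal, normalized to maximal glutamate response; EC50 from unconstrained 4-parameter logistic fit, triplicates weighted evenly.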
# [3] = NAM potency, decrease of glutamate EC80 response, >30,000 = no measurable activity, >10,000 = no plateau
# rat mGlu3, sequence (P31422 23-879): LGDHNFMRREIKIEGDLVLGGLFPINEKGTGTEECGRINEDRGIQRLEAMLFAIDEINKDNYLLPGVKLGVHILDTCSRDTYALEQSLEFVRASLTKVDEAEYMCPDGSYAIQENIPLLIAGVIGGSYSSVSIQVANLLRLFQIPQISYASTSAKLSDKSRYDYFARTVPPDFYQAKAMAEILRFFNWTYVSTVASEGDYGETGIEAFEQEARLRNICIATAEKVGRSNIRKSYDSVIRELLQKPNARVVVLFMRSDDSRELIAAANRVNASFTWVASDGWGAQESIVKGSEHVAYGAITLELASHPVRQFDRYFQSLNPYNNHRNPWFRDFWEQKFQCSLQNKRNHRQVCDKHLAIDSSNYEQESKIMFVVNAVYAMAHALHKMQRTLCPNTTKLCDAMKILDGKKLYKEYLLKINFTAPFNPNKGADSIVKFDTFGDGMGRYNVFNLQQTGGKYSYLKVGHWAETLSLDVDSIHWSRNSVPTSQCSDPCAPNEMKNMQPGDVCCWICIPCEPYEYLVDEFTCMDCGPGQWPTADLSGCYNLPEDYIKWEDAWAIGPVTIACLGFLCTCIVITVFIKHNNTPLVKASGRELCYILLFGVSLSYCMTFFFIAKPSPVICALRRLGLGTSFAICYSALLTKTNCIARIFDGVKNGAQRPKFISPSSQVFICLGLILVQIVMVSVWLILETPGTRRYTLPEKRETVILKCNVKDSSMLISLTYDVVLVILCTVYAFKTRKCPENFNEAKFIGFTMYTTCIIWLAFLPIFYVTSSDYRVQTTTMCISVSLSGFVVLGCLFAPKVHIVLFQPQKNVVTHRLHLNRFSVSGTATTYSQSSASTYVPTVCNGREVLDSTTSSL
# rat mGlu5, sequence (P31424 21-1203): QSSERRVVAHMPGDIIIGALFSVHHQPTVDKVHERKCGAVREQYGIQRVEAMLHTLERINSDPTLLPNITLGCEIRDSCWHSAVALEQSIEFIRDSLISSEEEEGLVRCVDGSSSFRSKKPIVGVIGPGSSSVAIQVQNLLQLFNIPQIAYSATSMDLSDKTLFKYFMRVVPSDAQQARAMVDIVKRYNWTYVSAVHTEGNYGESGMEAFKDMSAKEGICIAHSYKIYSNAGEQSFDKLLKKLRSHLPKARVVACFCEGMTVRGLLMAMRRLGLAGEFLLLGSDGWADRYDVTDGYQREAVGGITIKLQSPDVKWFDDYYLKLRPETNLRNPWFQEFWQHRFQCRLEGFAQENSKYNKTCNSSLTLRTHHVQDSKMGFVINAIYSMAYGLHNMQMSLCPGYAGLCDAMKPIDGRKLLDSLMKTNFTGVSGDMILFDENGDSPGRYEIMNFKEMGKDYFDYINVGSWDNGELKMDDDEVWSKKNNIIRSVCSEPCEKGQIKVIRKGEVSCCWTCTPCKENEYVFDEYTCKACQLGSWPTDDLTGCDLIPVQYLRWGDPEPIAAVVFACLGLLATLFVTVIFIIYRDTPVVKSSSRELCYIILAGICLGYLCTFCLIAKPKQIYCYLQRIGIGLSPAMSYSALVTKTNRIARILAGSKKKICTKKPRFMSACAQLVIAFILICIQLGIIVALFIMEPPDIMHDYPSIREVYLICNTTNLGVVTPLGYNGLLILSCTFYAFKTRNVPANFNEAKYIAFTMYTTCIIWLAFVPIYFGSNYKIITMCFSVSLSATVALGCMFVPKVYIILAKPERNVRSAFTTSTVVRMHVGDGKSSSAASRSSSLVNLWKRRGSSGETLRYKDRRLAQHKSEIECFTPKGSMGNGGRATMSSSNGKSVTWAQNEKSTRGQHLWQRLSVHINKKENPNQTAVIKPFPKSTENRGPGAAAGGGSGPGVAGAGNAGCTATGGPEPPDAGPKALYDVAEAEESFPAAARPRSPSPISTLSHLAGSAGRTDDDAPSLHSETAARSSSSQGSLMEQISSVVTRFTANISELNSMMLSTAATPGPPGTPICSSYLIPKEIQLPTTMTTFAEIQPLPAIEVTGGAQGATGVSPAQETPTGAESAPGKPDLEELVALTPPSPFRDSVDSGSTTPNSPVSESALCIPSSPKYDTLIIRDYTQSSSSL
IC50 [1] [nM],SMILES,"IC50 [1, 3] [nM]",remaining activity at 30 µM [1] [%],Fold selectivity (mGlu3 vs. mGlu5) [2],EC50 [2] [nM]
–,"COc1ccc(N(C)Cc2cc3n(n2)CCN(c2cc(F)ccc2Cl)C3=O)cc1 [Compound 129, 5-(2-chloro-5-fluorophenyl)-2-(((4-methoxyphenyl)(methyl)amino)methyl)-6,7-dihydropyrazolo[1,5-a]pyrazin-4(5H)-one]",2020,2.02,>14,> 30000
–,"COc1ccc(N(C)Cc2cc3n(n2)CCN(c2ccc(F)cc2Cl)C3=O)cc1 [Compound 130, 5-(2-chloro-4-fluorophenyl)-2-(((4-methoxyphenyl)(methyl)amino)methyl)-6,7-dihydropyrazolo[1,5-a]pyrazin-4(5H)-one]",1950,2.05,>15,> 30000
1370,"COc1ccc(N(C)Cc2cc3n(n2)CCN(c2cc(F)cc(Cl)c2)C3=O)cc1 [Compound 131, 5-(3-chloro-5-fluorophenyl)-2-(((4-methoxyphenyl)(methyl)amino)methyl)-6,7-dihydropyrazolo[1,5-a]pyrazin-4(5H)-one]",–,1.95,>21,> 30000
–,"COc1ccc(N(C)Cc2cc3n(n2)CCN(c2cc(F)cc(OC)c2)C3=O)cc1 [Compound 132, 5-(3-fluoro-5-methoxyphenyl)-2-(((4-methoxyphenyl)(methyl)amino)methyl)-6,7-dihydropyrazolo[1,5-a]pyrazin-4(5H)-one]",1340,1.5,>22,> 30000
–,"COc1ccc(N(C)Cc2cc3n(n2)CCN(c2ccc(F)c(Cl)c2)C3=O)cc1 [Compound 133, 5-(3-chloro-4-fluorophenyl)-2-(((4-methoxyphenyl)(methyl)amino)methyl)-6,7-dihydropyrazolo[1,5-a]pyrazin-4(5H)-one]",1210,2.13,>24,> 30000
–,"COc1ccc(N(C)Cc2cc3n(n2)CCN(c2cc(Cl)cc(OC)c2)C3=O)cc1 [Compound 134, 5-(3-chloro-5-methoxyphenyl)-2-(((4-methoxyphenyl)(methyl)amino)methyl)-6,7-dihydropyrazolo[1,5-a]pyrazin-4(5H)-one]",1710,1.77,>17,> 30000
–,"COc1ccc(N(C)Cc2cc3n(n2)CCN(c2cccc(Cl)c2F)C3=O)cc1 [Compound 135, 5-(3-chloro-2-fluorophenyl)-2-(((4-methoxyphenyl)(methyl)amino)methyl)-6,7-dihydropyrazolo[1,5-a]pyrazin-4(5H)-one]",1210,7.26,>24,> 30000
–,"COc1ccc(N(C)Cc2cc3n(n2)CCN(c2ccc(Cl)c(F)c2)C3=O)cc1 [Compound 136, 5-(4-chloro-3-fluorophenyl)-2-(((4-methoxyphenyl)(methyl)amino)methyl)-6,7-dihydropyrazolo[1,5-a]pyrazin-4(5H)-one]",1270,2.43,>23,> 30000
> 30000,"Cc1cnc(N2CCn3nc(CNc4ccc(OC(F)F)cc4F)cc3C2=O)s1 [Compound 137, 2-(((4-(difluoromethoxy)-2-fluorophenyl)amino)methyl)-5-(5-methylthiazol-2-yl)-6,7-dihydropyrazolo[1,5-a]pyrazin-4(5H)-one]",–,–,–,> 30000
821,"O=C1c2cc(CNc3ccc(OC(F)F)cc3F)nn2CCN1c1cccc(F)n1 [Compound 138, 2-(((4-(difluoromethoxy)-2-fluorophenyl)amino)methyl)-5-(6-fluoropyridin-2-yl)-6,7-dihydropyrazolo[1,5-a]pyrazin-4(5H)-one]",–,2.05,>36,> 30000
